Experimental data reported in paper PMC6522510 (Nature Communications, 2019).

Experiments:
MV4-11 [1] = assay: cells; set-up: species or system AML cell lines (8); Secondary HTS, 10-point dose-response in triplicate, Cell Titer Glo viability, four-parameter fit EC50; conditions: Homo sapiens, MV4-11, 72 h, read-out: MV4-11
MOLM-13 [2] = assay: cells; set-up: species or system AML cell lines (8); Secondary HTS, 10-point dose-response in triplicate, Cell Titer Glo viability, four-parameter fit EC50; conditions: Homo sapiens, MOLM-13, 72 h, read-out: MOLM-13
CMK [3] = assay: cells; set-up: species or system AML cell lines (8); Secondary HTS, 10-point dose-response in triplicate, Cell Titer Glo viability, four-parameter fit EC50; conditions: Homo sapiens, CMK, 72 h, read-out: CMK
CMK [4] = assay: Secondary dose-response HTS, Cell Titer Glo; format: cell-based, human; conditions: Homo sapiens, CMK, read-out: average effective concentration, CMK
CHRF288-11 [5] = assay: cells; set-up: species or system AML cell lines (8); Secondary HTS, 10-point dose-response in triplicate, Cell Titer Glo viability, four-parameter fit EC50; conditions: 72 h, read-out: CHRF288-11
U937 [6] = assay: cells; set-up: species or system AML cell lines (8); Secondary HTS, 10-point dose-response in triplicate, Cell Titer Glo viability, four-parameter fit EC50; conditions: Homo sapiens, U-937, 72 h, read-out: U937
ML2 = assay: Secondary dose-response HTS, Cell Titer Glo; format: cell-based, human; conditions: Homo sapiens; secondary high-throughput screen; ML-2; read-out: average effective concentration, ML-2
M07e = assay: cells; set-up: species or system AML cell lines (8); Secondary HTS, 10-point dose-response in triplicate, Cell Titer Glo viability, four-parameter fit EC50; conditions: M-07e, 72 h, read-out: M07e
CMS = assay: cells; set-up: species or system AML cell lines (8); Secondary HTS, 10-point dose-response in triplicate, Cell Titer Glo viability, four-parameter fit EC50; conditions: 72 h, read-out: CMS
MOLM-13 [7] = assay: Secondary dose-response HTS, Cell Titer Glo; format: cell-based, human; conditions: Homo sapiens; secondary high-throughput screen; MOLM-13; read-out: average effective concentration, MOLM-13
MV4-11 [8] = assay: Secondary dose-response HTS, Cell Titer Glo; format: cell-based, human; conditions: Homo sapiens; secondary high-throughput screen; MV4-11; read-out: average effective concentration, MV4-11
U937 [9] = assay: Secondary dose-response HTS, Cell Titer Glo; format: cell-based, human; conditions: Homo sapiens, U-937; secondary high-throughput screen; U937; read-out: average effective concentration, U937
CHRF288-11 [10] = assay: Secondary dose-response HTS, Cell Titer Glo; format: cell-based, human; conditions: Homo sapiens, HTS; secondary high-throughput screen; CHRF288-11; read-out: average effective concentration, CHRF288-11
[11] = secondary high-throughput screen

| EC50 (MV4-11 [1]) | EC50 (MOLM-13 [2]) | EC50 (U937 [6]) | EC50 (MOLM-13 [7]) | EC50 (MV4-11 [8]) | EC50 (U937 [9]) | Compound | EC50 (CMK [3]) | EC50 (CMK [4]; [11]) | EC50 (CHRF288-11 [5]) | EC50 (ML2) | EC50 (M07e) | EC50 (CMS) | EC50 (CMK [4]) | EC50 (CHRF288-11 [10]) |
| --- | --- | --- | --- | --- | --- | --- | --- | --- | --- | --- | --- | --- | --- | --- |
| > 10 µM | > 10 µM | – | – | – | – | CON(C)C(=O)N1N=C(c2cc(F)ccc2F)S[C@@]1(CCCN)c1ccccc1 [ARRY-520] | > 10 µM | – | – | – | – | – | – | – |
| – | – | > 10 µM | 8 µM | > 10 µM | – | COc1cc(N2CCC(N3CCN(C)CC3)CC2)ccc1Nc1ncnc(Nc2ccccc2S(=O)(=O)C(C)C)n1 [ASP3026] | – | 9.5 µM | > 10 µM | > 10 µM | > 10 µM | > 10 µM | – | – |
| > 10 µM | – | > 10 µM | > 10 µM | – | – | CN[C@@H](C)C(=O)N[C@H](C(=O)N1CCC[C@H]1c1nc(C(=O)c2ccc(F)cc2)cs1)C1CCCCC1 [LCL-161] | > 10 µM | – | – | 5 µM | > 10 µM | > 10 µM | – | 8.5 µM |
| – | – | – | 1.9 µM | 1.9 µM | 2 µM | CCN1CCN(Cc2ccc(Nc3ncc(F)c(-c4cc(F)c5nc(C)n(C(C)C)c5c4)n3)nc2)CC1 [LY2835219] | > 10 µM | – | > 10 µM | 4 µM | > 10 µM | > 10 µM | – | – |

Continued, compound first:

| Compound | EC50 (MV4-11 [1]) | EC50 (MOLM-13 [2]) | EC50 (U937 [6]) | EC50 (MOLM-13 [7]) | EC50 (MV4-11 [8]) | EC50 (U937 [9]) | EC50 (CMK [3]) | EC50 (CMK [4]; [11]) | EC50 (CHRF288-11 [5]) | EC50 (ML2) | EC50 (M07e) | EC50 (CMS) | EC50 (CMK [4]) | EC50 (CHRF288-11 [10]) |
| --- | --- | --- | --- | --- | --- | --- | --- | --- | --- | --- | --- | --- | --- | --- |
| O=C(CCCCCN1C(=O)c2cccc3cccc(c23)C1=O)NO | > 10 µM | > 10 µM | – | – | – | – | – | – | – | – | – | – | – | – |
| C[C@H]1[C@H](OC(=O)CCC(=O)O)O[C@@H]2O[C@@]3(C)CC[C@H]4[C@H](C)CC[C@@H]1[C@@]24OO3 [Artesunate] | > 10 µM | – | – | – | – | – | > 10 µM | – | – | – | – | – | – | – |
| C[C@@]1(C(=O)Nc2ccc(F)nc2)CCCN1c1nc(Nc2cc(C3CC3)n[nH]2)c2cccn2n1 [BMS-754807] | – | – | > 10 µM | 8.4 µM | 10 µM | – | – | 2 µM | > 10 µM | 2 µM | > 10 µM | > 10 µM | – | – |
| CC(C)C[C@H](NC(=O)[C@H](Cc1ccccc1)NC(=O)c1cnccn1)B(O)O [Bortezomib] | – | – | – | – | – | – | – | – | 0.0021 µM | – | – | – | – | – |
| CO[C@@H](C(=O)N1Cc2n[nH]c(NC(=O)c3ccc(N4CCN(C)CC4)cc3)c2C1)c1ccccc1 [DANUSERTIB] | – | – | – | 1.4 µM | 0.48 µM | 3.8 µM | – | – | > 10 µM | 0.61 µM | > 10 µM | > 10 µM | > 10 µM | – |
| Cc1nc(Nc2ncc(C(=O)Nc3c(C)cccc3Cl)s2)cc(N2CCN(CCO)CC2)n1 [DASATINIB] | > 10 µM | > 10 µM | > 10 µM | – | – | – | > 10 µM | – | – | > 10 µM | > 10 µM | > 10 µM | – | 8.4 µM |
| O=c1oc2c(O)c(O)cc3c(=O)oc4c(O)c(O)cc1c4c23 [ELLAGIC ACID] | > 10 µM | – | > 10 µM | 0.8 µM | – | – | > 10 µM | – | > 10 µM | 0.51 µM | > 10 µM | > 10 µM | – | – |
| CN1c2ccccc2C(=O)N2CCc3c([nH]c4ccccc34)[C@H]21 [EVODIAMINE] | > 10 µM | > 10 µM | – | – | – | – | – | – | > 10 µM | – | – | – | – | – |
| CN(Cc1cnc2nc(N)nc(N)c2n1)c1ccc(C(=O)N[C@@H](CCC(=O)O)C(=O)O)cc1 [METHOTREXATE] | > 10 µM | – | > 10 µM | > 10 µM | – | – | – | 0.0045 µM | – | 0.001 µM | > 10 µM | > 10 µM | – | 0.001 µM |
| CCNC(=O)c1noc(-c2cc(C(C)C)c(O)cc2O)c1-c1ccc(CN2CCOCC2)cc1 [NVP-AUY922] | – | – | – | 0.001 µM | 0.001 µM | 0.001 µM | – | 0.001 µM | – | 0.023 µM | > 10 µM | > 10 µM | – | 0.021 µM |
| COc1ccc(-c2ccc3ncc4c(c3c2)n(-c2ccc(N3CCNCC3)c(C(F)(F)F)c2)c(=O)n4C)cn1 [NVP-BGT226] | – | 0.115 µM | – | – | – | – | – | – | – | – | – | – | – | – |
